In patent publication US20080038728A1, “Quadruple Transformed Cell Line Useful for the Identification of Transport Inhibitors” (priority 2004, published 2008):
Like-named read-outs stand apart in the source and are kept apart here.

Legend:
OATP1B1 [1] = molecular target: T1, OATP1B1 (Homo sapiens, UniProt Q9Y6L6); conditions: cRNA-injected Xenopus laevis oocytes; cited from earlier work
T1 sequence (Q9Y6L6 1-691): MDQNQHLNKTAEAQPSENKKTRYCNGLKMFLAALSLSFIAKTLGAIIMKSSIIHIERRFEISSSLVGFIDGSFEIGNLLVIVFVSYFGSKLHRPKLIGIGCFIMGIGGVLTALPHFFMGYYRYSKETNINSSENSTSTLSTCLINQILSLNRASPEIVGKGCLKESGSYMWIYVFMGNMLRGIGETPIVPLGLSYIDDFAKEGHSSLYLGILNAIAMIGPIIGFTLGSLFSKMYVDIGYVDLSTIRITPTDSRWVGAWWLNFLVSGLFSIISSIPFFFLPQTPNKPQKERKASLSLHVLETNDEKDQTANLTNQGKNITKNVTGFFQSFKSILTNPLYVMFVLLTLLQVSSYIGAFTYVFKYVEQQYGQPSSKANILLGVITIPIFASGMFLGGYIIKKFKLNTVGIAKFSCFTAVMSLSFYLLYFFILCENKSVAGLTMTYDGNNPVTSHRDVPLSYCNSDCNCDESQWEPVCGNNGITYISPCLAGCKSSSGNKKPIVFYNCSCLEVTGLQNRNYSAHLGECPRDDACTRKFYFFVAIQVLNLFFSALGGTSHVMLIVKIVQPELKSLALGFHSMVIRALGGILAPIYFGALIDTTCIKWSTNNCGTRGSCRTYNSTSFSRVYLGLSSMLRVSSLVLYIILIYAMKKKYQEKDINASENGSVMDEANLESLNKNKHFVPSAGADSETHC

OATP1B1 [2] = molecular target: T1, OATP1B1; conditions: BSP uptake, background section; cited from earlier work
OATP1B3 = molecular target: T2, OATP1B3 (Homo sapiens, UniProt Q9NPD5); test: Uptake (intracellular accumulation) kinetics in ABCC2/OATP1B3 double-transfected MDCKII cells; format: in vitro ADME; set-up: expressed in transfected cells; host or cells: MDCKII (canine kidney), co-expressing ABCC2
T2 sequence (Q9NPD5 1-702): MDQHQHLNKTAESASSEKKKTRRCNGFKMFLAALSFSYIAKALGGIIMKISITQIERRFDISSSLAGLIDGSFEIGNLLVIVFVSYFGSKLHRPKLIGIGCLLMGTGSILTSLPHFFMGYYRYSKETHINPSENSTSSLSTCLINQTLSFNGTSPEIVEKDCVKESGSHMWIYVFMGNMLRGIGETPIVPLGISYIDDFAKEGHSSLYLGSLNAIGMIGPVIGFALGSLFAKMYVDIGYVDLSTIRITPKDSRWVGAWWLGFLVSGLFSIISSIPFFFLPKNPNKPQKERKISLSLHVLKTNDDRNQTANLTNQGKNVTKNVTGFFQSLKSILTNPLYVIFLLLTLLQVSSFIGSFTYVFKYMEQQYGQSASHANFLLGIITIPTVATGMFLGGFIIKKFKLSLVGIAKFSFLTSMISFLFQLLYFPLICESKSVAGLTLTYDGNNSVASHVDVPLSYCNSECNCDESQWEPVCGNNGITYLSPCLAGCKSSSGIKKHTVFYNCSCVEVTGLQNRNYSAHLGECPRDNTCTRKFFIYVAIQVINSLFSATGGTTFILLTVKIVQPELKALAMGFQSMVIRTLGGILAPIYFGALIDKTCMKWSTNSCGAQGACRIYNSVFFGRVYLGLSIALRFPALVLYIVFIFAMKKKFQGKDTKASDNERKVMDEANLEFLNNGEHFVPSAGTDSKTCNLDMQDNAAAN
Protocol: (a) MDCKII cells were grown on ThinCerts (24-mm diameter, pore size 0.4 μm, pore density 1×10^8 per cm^2) and induced with butyrate as mentioned above. The cells were washed in prewarmed (37° C.) transport buffer (142 mM NaCl, 5 mM KCl, 1 mM KH2PO4, 1.2 mM MgSO4, 1.5 mM CaCl2, 5 mM glucose, and 12.5 mM HEPES, pH 7.3). The ^3H-labeled substrate was dissolved in transport buffer and added either to the apical or to the basolateral compartment at the concentration indicated. After incubation at 37° C., the radioactivity in the opposite compartment was measured by sampling aliquots from the apical or basolateral compartment. Cells were washed 2 times with ice-cold transport buffer containing 0.5% bovine serum albumin and 3 times in ice-cold transport buffer. Intracellular accumulation of radioactivity was calculated by lyzing the cells with 0.2% sodium dodecyl sulfate (SDS) and measuring the radioactivity in the lysate.

## O=C1OC(c2ccc(O)c(S(=O)(=O)O)c2)(c2ccc(O)c(S(=O)(=O)O)c2)c2c(Br)c(Br)c(Br)c(Br)c21 [Bromosulfophthalein]
OATP1B1 [1]
  Km: 0.3 µM
OATP1B1 [2]
  Km: 0.14 µM
OATP1B3; cell line ABCC2-OATP1B3, intracellular accumulation of 3H-labeled substrate
  Vmax: 82.7 ± 4.0 pmol · mg protein^−1 · min^−1
OATP1B3; human, pH 7.3
  Km at 5 min: 2.2 µM
